The record followed here is patent publication USRE47689E1, “Compounds for treating spinal muscular atrophy” (PTC Therapeutics, Inc., priority 2011, dated 2019).

Data set [1] deals with SMN2 minigene (full length SMN2 minigene mRNA containing SMN2 exon 7). Description: SMN2 minigene mRNA splicing RT-qPCR assay in cultured cells. It counts as cell-based, human. The following applies: Homo sapiens, HEK293-H; HEK293H cells stably transfected with SMN2-A minigene; 24 hours; 7-point concentration curve; 1.5-fold relative to vehicle-treated cells; read-out: EC1.5x for production of full length SMN2 mRNA. In a few lines: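 Full-length SMN2 minigene mRNA (exon 7 included), minigene-specific and not endogenous SMN, quantified by RT-qPCR multiplexed with GAPDH in stably transfected HEK293H cells after 24 h compound exposure at 37° C. Abundance from efficiency-corrected Ct, normalized to GAPDH and vehicle; EC1.5x reported as star bins.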
(Quantitative PCR measures a nucleic acid by following its amplification.)

A further data set concerns Smn protein. Briefly: Smn protein assay in cultured cells (SMN HTRF). Type of data set: cell-based, human. Conditions: 48 hours; for maximum fold (Fold) increase of Smn protein: SMA patient fibroblast cells, 7-point concentration data, fold increase relative to vehicle control (SMN HTRF); for EC1.5x (concentration giving 1.5-fold Smn protein increase): SMA Type 1 patient fibroblast cells (GM03813), 7-point concentration curve, SMN HTRF, concentration producing 1.5 times Smn protein vs DMSO vehicle control, read-out: EC1.5x for Smn protein expression. An outline of the steps: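 Smn in SMA fibroblast lysates, measured by anti-SMN HTRF after 48 h compound exposure; EC1.5x from fold change over vehicle.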
A general note: In TR-FRET formats the signal depends on donor and acceptor labels being close together.

The melting point is the temperature, or range, at which the solid turns liquid. `Cc1cc(Cl)c2nc(-c3cc4ccc(N5CCN(C)CC5)cc4oc3=O)cn2c1` [Compound 343, 3-(8-chloro-6-methylimidazo[1,2-a]pyridin-2-yl)-7-(4-methylpiperazin-1-yl)-2H-chromen-2-one] showed a melting point of 245 to 253 °C. Also, in data set [1], the EC (1.5-fold) fell in the range of 0.1 to 0.3 µM. In addition, the “maximum fold (Fold) increase of Smn protein” value (from here on “maximum fold (Fold) increase”) in the data set on Smn protein is “* (maximum fold increase of ≤1.2)”.

With `Cc1nc2ccc(-c3cc4ccc(N5CCCNCC5)cc4oc3=O)cc2s1` [Compound 771, 7-(1,4-diazepan-1-yl)-3-(2-methyl-1,3-benzothiazol-6-yl)-2H-chromen-2-one], the melting point was in the range of 228 to 230 °C. In data set [1], the EC (1.5-fold) lay within 1 to 3 µM. Also, the “maximum fold (Fold) increase” value in the data set with Smn protein is listed as “* (maximum fold increase of ≤1.2)”.

Consider `Cc1cn2cc(-c3cc4ccc(CCCN(C)CCO)cc4oc3=O)nc2c(C)n1` [Compound 880, 3-(6,8-dimethylimidazo[1,2-a]pyrazin-2-yl)-7-{3-[(2-hydroxyethyl)(methyl)amino]propyl}-2H-chromen-2-one], for which the melting point lay within 173 to 176 °C. In addition, the EC (1.5-fold) in data set [1] was under 0.1 µM. Besides, in the data set on Smn protein, the EC1.5x (concentration giving 1.5-fold Smn protein increase) is under 300 nM; the “maximum fold (Fold) increase” value is “**** (fold increase between >1.5 and ≤1.65)”.

As to `Cc1cn2cc(-c3cc4ccc(CCNC(C)CO)cc4oc3=O)nc2c(C)n1` (stereo not drawn) [Compound 872, 3-(6,8-dimethylimidazo[1,2-a]pyrazin-2-yl)-7-{2-[(1-hydroxypropan-2-yl)amino]ethyl}-2H-chromen-2-one], the melting point is 203 to 206 °C. The EC (1.5-fold) in data set [1] fell in the range of 0.1 to 0.3 µM. Also, in the data set on Smn protein, the EC1.5x (concentration giving 1.5-fold Smn protein increase) fell in the range of 300 to 1000 nM; the “maximum fold (Fold) increase” value was “**** (fold increase between >1.5 and ≤1.65)”.

In turn, `O=c1oc2cc(N3CCNCC3)ccc2cc1-c1cccc(OC2CCC2)n1` [Compound 414, 3-[6-(cyclobutyloxy)pyridin-2-yl]-7-(piperazin-1-yl)-2H-chromen-2-one] came in with a melting point of 166 to 168 °C. Moreover, the EC (1.5-fold) in data set [1] is 3 to 30 µM. The “maximum fold (Fold) increase” value in the data set with Smn protein is given as “* (maximum fold increase of ≤1.2)”.

Consider `Cc1ccc2nc(-c3cc4ccc(N5CCCC(N(C)C)C5)cc4oc3=O)cn2c1` (stereo not drawn) [Compound 200, 7-[3-(dimethylamino)piperidin-1-yl]-3-(6-methylimidazo[1,2-a]pyridin-2-yl)-2H-chromen-2-one], for which the melting point was in the range of 167 to 169 °C. In addition, the EC (1.5-fold) in data set [1] was 3 to 30 µM. Besides, the “maximum fold (Fold) increase” value with Smn protein was “* (maximum fold increase of ≤1.2)”.

`CN1CCN(c2ccc3cc(-c4cn5ccncc5n4)c(=O)oc3c2)CC1` [Compound 457, 3-(imidazo[1,2-a]pyrazin-2-yl)-7-(4-methylpiperazin-1-yl)-2H-chromen-2-one] displayed a melting point of 246 to 249 °C. Besides, the EC (1.5-fold) in data set [1] fell in the range of 0.1 to 0.3 µM. Besides, the “maximum fold (Fold) increase” value in the data set on Smn protein is “** (fold increase between >1.2 and ≤1.35)”.

`Cc1cnc2nc(-c3cc4ccc(N5CCN[C@H](C)C5)cc4oc3=O)cn2c1` [Compound 463, 3-(6-methylimidazo[1,2-a]pyrimidin-2-yl)-7-[(3R)-3-methylpiperazin-1-yl]-2H-chromen-2-one] returned a melting point of 258 to 261 °C. Further, the EC (1.5-fold) in data set [1] was in the range of 0.1 to 0.3 µM. Moreover, the “maximum fold (Fold) increase” value with Smn protein was “* (maximum fold increase of ≤1.2)”.

On to `Cc1cc(F)c2nc(-c3cc4ccc(N5CC6CCC5CN6)cc4oc3=O)cn2c1` (stereo not drawn) [Compound 600, 7-(2,5-diazabicyclo[2.2.2]oct-2-yl)-3-(8-fluoro-6-methylimidazo[1,2-a]pyridin-2-yl)-2H-chromen-2-one], for which the melting point lay in the range of 246 to 256 °C. Further, the EC (1.5-fold) in data set [1] was under 0.1 µM. Further, in the data set with Smn protein, the EC1.5x (concentration giving 1.5-fold Smn protein increase) is under 300 nM and the “maximum fold (Fold) increase” value is “***** (fold increase >1.65)”.

In turn, `Cc1cc(Cl)cn2cc(-c3cc4ccc(N5CCN(C)CC5)cc4oc3=O)nc12` [Compound 264, 3-(6-chloro-8-methylimidazo[1,2-a]pyridin-2-yl)-7-(4-methylpiperazin-1-yl)-2H-chromen-2-one] displayed a melting point of 238 °C. Besides, the EC (1.5-fold) in data set [1] was 1 to 3 µM. The “maximum fold (Fold) increase” value in the data set on Smn protein is “* (maximum fold increase of ≤1.2)”.

`O=c1oc2cc(CO)cc(F)c2cc1-c1cn2ccsc2n1` [Compound 397, 5-fluoro-7-(hydroxymethyl)-3-(imidazo[2,1-b][1,3]thiazol-6-yl)-2H-chromen-2-one] registered a melting point of 278 to 282 °C. In addition, the EC (1.5-fold) in data set [1] was 3 to 30 µM. Besides, in the data set with Smn protein, the “maximum fold (Fold) increase” value is listed as “* (maximum fold increase of ≤1.2)”.

`CN(C)[C@H]1CCN(c2ccc3cc(-c4cn5cccc(Cl)c5n4)c(=O)oc3c2)C1` [Compound 122, 3-(8-chloroimidazo[1,2-a]pyridin-2-yl)-7-[(3S)-3-(dimethylamino)pyrrolidin-1-yl]-2H-chromen-2-one]: the melting point was 238 to 241 °C. For the same compound, the EC (1.5-fold) in data set [1] was 1 to 3 µM. Moreover, in the data set on Smn protein, the “maximum fold (Fold) increase” value is listed as “* (maximum fold increase of ≤1.2)”.

Turning to `Cc1cn2cc(-c3cc4ccc(N5C[C@H]6CCCN(C)[C@H]6C5)cc4oc3=O)nc2c(C)n1` [Compound 658, 3-(6,8-dimethylimidazo[1,2-a]pyrazin-2-yl)-7-[(4aR,7aR)-1-methyloctahydro-6H-pyrrolo[3,4-b]pyridin-6-yl]-2H-chromen-2-one], the melting point turned out to be 232 °C. In data set [1], the EC (1.5-fold) is under 0.1 µM. In the data set with Smn protein, the EC1.5x (concentration giving 1.5-fold Smn protein increase) was under 300 nM and the “maximum fold (Fold) increase” value is “***** (fold increase >1.65)”.

As to `Cc1cn2cc(-c3cc4ccc(N5C[C@H]6CCN(C)[C@H]6C5)cc4oc3=O)cc2c(C)n1` [Compound 755, 3-(1,3-dimethylpyrrolo[1,2-a]pyrazin-7-yl)-7-[(3aR,6aR)-1-methylhexahydropyrrolo[3,4-b]pyrrol-5(1H)-yl]-2H-chromen-2-one], the melting point fell in the range of 196 to 198 °C. The EC (1.5-fold) in data set [1] is under 0.1 µM. Besides, in the data set with Smn protein, the “maximum fold (Fold) increase” value is “*** (fold increase between >1.35 and ≤1.5)”.

`CCN1CCN(c2ccc3cc(-c4cc5c(C)nc(C)cn5c4)c(=O)oc3c2)C[C@@H]1C` [Compound 694, 3-(1,3-dimethylpyrrolo[1,2-a]pyrazin-7-yl)-7-[(3S)-4-ethyl-3-methylpiperazin-1-yl]-2H-chromen-2-one] displayed a melting point of 173 to 175 °C. In addition, the EC (1.5-fold) in data set [1] was under 0.1 µM. For the same compound, in the data set on Smn protein, the EC1.5x (concentration giving 1.5-fold Smn protein increase) was under 300 nM; the “maximum fold (Fold) increase” value is “**** (fold increase between >1.5 and ≤1.65)”.

`C[C@@H]1CN(c2ccc3cc(-c4cn5cccc(F)c5n4)c(=O)oc3c2)C[C@H](C)N1` [Compound 338, 7-[(3R,5S)-3,5-dimethylpiperazin-1-yl]-3-(8-fluoroimidazo[1,2-a]pyridin-2-yl)-2H-chromen-2-one]: the melting point lay within 176 to 180 °C. In addition, the EC (1.5-fold) in data set [1] fell in the range of 0.1 to 0.3 µM. In the data set with Smn protein, the EC1.5x (concentration giving 1.5-fold Smn protein increase) fell in the range of 3000 to 10000 nM; the “maximum fold (Fold) increase” value is “** (fold increase between >1.2 and ≤1.35)”.

`CN1CCN(c2ccc3cc(-c4cn5cnccc5n4)c(=O)oc3c2)CC1` [Cpd 458, 3-(imidazo[1,2-c]pyrimidin-2-yl)-7-(4-methylpiperazin-1-yl)-2H-chromen-2-one] had a melting point of 253 to 255 °C. In addition, the EC (1.5-fold) in data set [1] lay in the range of 0.3 to 1 µM. The “maximum fold (Fold) increase” value in the data set with Smn protein is “*** (fold increase between >1.35 and ≤1.5)”.

Compound `Cc1cn2cc(-c3cc4ccc(N5CC[C@H](N(C)C)C5)cc4oc3=O)ccc2n1` [Compound 717, 7-[(3S)-3-(dimethylamino)pyrrolidin-1-yl]-3-(2-methylimidazo[1,2-a]pyridin-6-yl)-2H-chromen-2-one] returned a melting point of 230 to 234 °C. In data set [1], the EC (1.5-fold) fell in the range of 0.3 to 1 µM. In addition, the “maximum fold (Fold) increase” value in the data set on Smn protein is “*** (fold increase between >1.35 and ≤1.5)”.

Regarding `CCN(CC)Cc1ccc2cc(-c3nc4c(Cl)cccc4s3)c(=O)oc2c1` [Compound 58, 3-(4-chloro-1,3-benzothiazol-2-yl)-7-[(diethylamino)methyl]-2H-chromen-2-one], the melting point fell in the range of 147 to 151 °C. The EC (1.5-fold) in data set [1] is 1 to 3 µM. Further, in the data set on Smn protein, the EC1.5x (concentration giving 1.5-fold Smn protein increase) is 300 to 1000 nM; the “maximum fold (Fold) increase” value was “**** (fold increase between >1.5 and ≤1.65)”.

The compound `CN1CCCN(c2ccc3cc(-c4cn5cccc(F)c5n4)c(=O)oc3c2)CC1` [Compound 295, 3-(8-fluoroimidazo[1,2-a]pyridin-2-yl)-7-(4-methyl-1,4-diazepan-1-yl)-2H-chromen-2-one] gave a melting point of 174 to 176 °C. Besides, the EC (1.5-fold) in data set [1] is under 0.1 µM. In addition, in the data set with Smn protein, the EC1.5x (concentration giving 1.5-fold Smn protein increase) was in the range of 300 to 1000 nM; the “maximum fold (Fold) increase” value is “**** (fold increase between >1.5 and ≤1.65)”.

The compound `Cc1cn2cc(-c3cc4ccc(N5CC[C@@H](CN(C)C)C5)cc4oc3=O)nc2c(C)n1` [Compound 967, 7-{(3S)-3-[(dimethylamino)methyl]pyrrolidin-1-yl}-3-(6,8-dimethylimidazo[1,2-a]pyrazin-2-yl)-2H-chromen-2-one] came in with a melting point of 198 to 200 °C. Moreover, the EC (1.5-fold) in data set [1] was under 0.1 µM. Also, in the data set with Smn protein, the EC1.5x (concentration giving 1.5-fold Smn protein increase) is under 300 nM; the “maximum fold (Fold) increase” value was “**** (fold increase between >1.5 and ≤1.65)”.
